Series [1] is described as follows: Pharmacokinetics after intravenous bolus, mouse. The class given is in vivo. The note with it: 10 mg/kg bolus IV. Here is the method: (§1) Test agents were formulated in 2% (v/v) propylene glycol in 25 mM HEPES, pH 7.4 and administered with a bolus injection at 10.0 mg/kg via the tail vain to male CD-1 mice (Charles River Laboratories) or male Wistar rats (Charles River Laboratories), or with a 30-min intravenous infusion at 4 mg/kg to male cynomolgus monkeys.
Blood samples were collected at 2.5, 5, 10, 30, 60, 120, 240 and 480 minutes after administration (mouse and rat), or at 5, 15, 30, 60, 120, 240, 360, 480 and 1440 min (Agent 1) or at 5, 15, 30, 45, 60, 90, 150, 240 and 480 min (Agent 2) after the start of infusion in monkeys. Samples were immediately mixed with a protease inhibitor cocktail (Roche cOmplete™ EDTA-free) before being cooled and centrifuged for plasma separation. Plasma samples were frozen and stored at −20° C. until analysis.
To rat samples, blank rat plasma was added up to a volume of 100 μl. […]
Mouse and rat samples: Separation was done with a C18 column (Phenomenex Kinetex XB—C18 (100×2.1 mm, 1.7 μm)), using a gradient between 1% formic acid in water and 2% DMSO in acetonitrile (Agent 1) or acetonitrile (Agent 2). […] The range of quantitation was 4-20,000 ng/mL.
(§2) Non-compartmental PK analysis on plasma concentration versus time data was analyzed by non-compartmental approaches using the WinNonlin software program (version 6.3 or above, Pharsight, Mountain View, CA). […]

Series [2] is described as follows: FIG. 10B. The note with it: rat, in vivo, iv, 10 mg/kg. Here is the method: Table printed on a drawing sheet, FIG. 10B
(§3) The patent's description of the figure: FIGS. 10A-10C. Pharmacokinetic profile and parameter for peptides after intravenous administration. FIG. 10A) Mouse PK data (10 mg/kg, bolus IV, n=3 per timepoint). FIG. 10B) Rat PK data (10 mg/kg, bolus IV, n=3 per timepoint). FIG. 10C) Non-human primate (NHP) PK data (4 mg/kg, 30 min IV infusion, n=3). Error bars represent the standard deviation (SD).
First reader's note: Rat PK parameters; the plot legend on the same sheet gives 10 mg/kg (IV) for both agents, and the top-left cell 'PK parameters / rat' spans the first two rows.

Series [3] in a line: FIG. 10A. The following applies: mouse, in vivo, iv, 10 mg/kg. The procedure:
Table printed on a drawing sheet, FIG. 10A
as §3
First reader's note: Mouse PK parameters; the legend of the plot on the same sheet gives 10 mg/kg (IV) for both agents.

A short description of series [4]: Pharmacokinetics after 30-min intravenous infusion, cynomolgus monkey. The class given is in vivo. The following applies: 4 mg/kg 30 min IV infusion. The procedure:
as §1
Blood samples were collected at 2.5, 5, 10, 30, 60, 120, 240 and 480 minutes after administration (mouse and rat), or at 5, 15, 30, 60, 120, 240, 360, 480 and 1440 min (Agent 1) or at 5, 15, 30, 45, 60, 90, 150, 240 and 480 min (Agent 2) after the start of infusion in monkeys. […]
Monkey samples, Agent 1: Separation was done with a C18 column (Waters Acquity UPLC BEH C18 (50×2.1 mm, 1.7 μm)), using a gradient between 0.1% formic acid in water and 0.1% formic acid in acetonitrile. […] The range of quantitation was 10-3,000 ng/mL.
Monkey samples, Agent 2: Separation was done with a C18 column (Waters Acquity CSH C18 (50×2.1 mm, 1.7 μm)), using a gradient between 0.2% formic acid in acetonitrile and 0.2% formic acid in water. […] The range of quantitation was 10-10,000 ng/mL.
as §2

Each structure is given as a SMILES string. Where a SMILES comes first, the peptide text is derived from it. Bridges are numbered along the chain shown (N, C = ends). [ ]: non-standard residue; d: D form. The star is where a group is joined. C16 diacid = O=C(O)CCCCCCCCCCCCCCC(=O)*; AEEA = NCCOCCOCC(=O)O

Here are results for one compound from US20240350647A1, “STING SENSITIZING AGENTS” (STipe Therapeutics ApS, priority 2023, published 2024).

For `CC[C@H](C)[C@H](NC(=O)[C@H](CC(N)=O)NC(=O)[C@H](CCCCN)NC(=O)[C@H](C)NC(=O)[C@H](CCCCN)NC(=O)[C@H](CCCCN)NC(=O)COCCOCCNC(=O)COCCOCCNC(=O)CCCCCCCCCCCCCCC(=O)O)C(=O)N[C@H](C(=O)N[C@@H](CC(C)C)C(=O)N[C@@H](CC(C)C)C(=O)N[C@@H](CCCCN)C(=O)NCC(=O)N[C@@H](CC(C)C)C(=O)N[C@@H](CCC(=O)O)C(=O)N[C@H](C(=O)N[C@H](C(=O)N[C@@H](CC(N)=O)C(=O)N[C@@H](CC(=O)O)C(=O)N[C@@H](Cc1c[nH]c2ccccc12)C(=O)N[C@@H](Cc1c[nH]cn1)C(=O)N[C@@H](Cc1ccccc1)C(=O)N[C@H]1CSSC[C@@H](C(N)=O)NC(=O)[C@@H](CCCNC(=N)N)NC(=O)[C@H](CCCNC(=N)N)NC(=O)[C@@H](CCCCN)NC(=O)[C@H](CCCCN)NC(=O)[C@@H](CCCNC(=N)N)NC(=O)CNC(=O)[C@@H](CCCNC(=N)N)NC(=O)[C@H](CCCNC(=N)N)NC(=O)[C@@H](CCCNC(=N)N)NC1=O)[C@@H](C)CC)C(C)C)C(C)C` [Agent 1] ({C16 diacid-AEEA-AEEA}-KKAKNIVLLKGLEVINDWHFC[dR]R[dR]G[dR]K[dK]R[dR]C-NH2; disulfide 21-31), the “increase in exposure (AUC0-inf) compared to Agent 2, at equal dose” value in series [1] is reported as “approximately 32 fold”; in series [4] it was around 13 fold. For the same compound, the C0 in series [2] was determined as 72.7 µg/mL; in series [3], 30.5 µg/mL.
